Data reported in ChEMBL document CHEMBL6121016, “Design, Synthesis, and Biological Evaluation of 1,3,4-Thiadiazole Derivatives as Novel Potent Peptide Deformylase Inhibitors for Combating Drug-Resistant Gram-Positive and -Negative Bacteria” (J Med Chem, 2025).
≈ marks a conversion by molar mass, not a printed value.

What was measured:
Assay type in all cases: functional
Conditions in all cases: time 16-18 hrs
Staphylococcus aureus [1] = experiment: Antibacterial activity against methicillin-resistant Staphylococcus aureus ATCC 33591 after 16 to 18 hrs by broth microdilution method
Staphylococcus aureus [2] = experiment: Antibacterial activity against methicillin-resistant Staphylococcus aureus ATCC 43300 after 16 to 18 hrs by broth microdilution method
Staphylococcus aureus [3] = experiment: Antibacterial activity against methicillin-resistant Staphylococcus aureus Bio-090770 after 16 to 18 hrs by broth microdilution method
Staphylococcus aureus [4] = experiment: Antibacterial activity against methicillin-susceptible Staphylococcus aureus ATCC 29213 after 16 to 18 hrs by broth microdilution method
Staphylococcus aureus [5] = experiment: Antibacterial activity against methicillin-susceptible Staphylococcus aureus ATCC 25923 after 16 to 18 hrs by broth microdilution method
Staphylococcus aureus [6] = experiment: Antibacterial activity against methicillin-susceptible Staphylococcus aureus ATCC 13709 after 16 to 18 hrs by broth microdilution method
[7] = tested on: Staphylococcus epidermidis; experiment: Antibacterial activity against Staphylococcus epidermidis after 16 to 18 hrs by broth microdilution method
Escherichia coli = experiment: Antibacterial activity against Escherichia coli ATCC 25922 after 16 to 18 hrs by broth microdilution method
Klebsiella pneumoniae = experiment: Antibacterial activity against Klebsiella pneumoniae CICC 21611 after 16 to 18 hrs by broth microdilution method
Acinetobacter baumannii [8] = experiment: Antibacterial activity against Acinetobacter baumannii Bio 34235 after 16 to 18 hrs by broth microdilution method
Acinetobacter baumannii [9] = experiment: Antibacterial activity against drug-resistant Acinetobacter baumannii Bio 53272 after 16 to 18 hrs by broth microdilution method

Structure (SMILES) | MIC (Staphylococcus aureus [1]) [µg/mL] | MIC (Staphylococcus aureus [2]) [µg/mL] | MIC (Staphylococcus aureus [3]) [µg/mL] | MIC (Staphylococcus aureus [4]) [µg/mL] | MIC (Staphylococcus aureus [5]) [µg/mL] | MIC (Staphylococcus aureus [6]) [µg/mL] | MIC [7] [µg/mL] | MIC (Escherichia coli) [µg/mL] | MIC (Klebsiella pneumoniae) [µg/mL] | MIC (Acinetobacter baumannii [8]) [µg/mL] | MIC (Acinetobacter baumannii [9]) [µg/mL]
CCCC[C@H](CN(O)C=O)C(=O)N1CCC[C@H]1c1nnc(-c2cscn2)s1 | 0.5 (≈ 1.22 µM) | 0.5 (≈ 1.22 µM) | 2 (≈ 4.88 µM) | 1 (≈ 2.44 µM) | 1 (≈ 2.44 µM) | 1 (≈ 2.44 µM) | 0.25 (≈ 0.61 µM) | 64 (≈ 156 µM) | 32 (≈ 78.1 µM) | 64 (≈ 156 µM) | 16 (≈ 39.1 µM)
CCCC[C@H](CN(O)C=O)C(=O)N1CCC[C@H]1c1nnc(-c2ccc(Br)s2)s1 | 0.25 (≈ 0.513 µM) | 0.25 (≈ 0.513 µM) | 2 (≈ 4.1 µM) | 2 (≈ 4.1 µM) | 1 (≈ 2.05 µM) | 2 (≈ 4.1 µM) | 1 (≈ 2.05 µM) | 64 (≈ 131 µM) | 32 (≈ 65.6 µM) | 32 (≈ 65.6 µM) | 16 (≈ 32.8 µM)
CCCC[C@H](CN(O)C=O)C(=O)N1CCC[C@H]1c1nnc(-c2ccc(OC)cc2)s1 | 0.25 (≈ 0.578 µM) | 0.25 (≈ 0.578 µM) | 1 (≈ 2.31 µM) | 0.5 (≈ 1.16 µM) | 0.5 (≈ 1.16 µM) | 0.5 (≈ 1.16 µM) | 1 (≈ 2.31 µM) | > 16 | > 16 | 16 (≈ 37 µM) | > 8
CCCC[C@H](CN(O)C=O)C(=O)N1CCC[C@H]1c1nnc(-c2ccccc2OC)s1 | 2 (≈ 4.62 µM) | 0.5 (≈ 1.16 µM) | 2 (≈ 4.62 µM) | 0.5 (≈ 1.16 µM) | 1 (≈ 2.31 µM) | 1 (≈ 2.31 µM) | 2 (≈ 4.62 µM) | 16 (≈ 37 µM) | > 16 | 16 (≈ 37 µM) | 16 (≈ 37 µM)
CCCC[C@H](CN(O)C=O)C(=O)N1CCC[C@H]1c1nnc(-c2ccc(Br)cc2)s1 | 0.5 (≈ 1.04 µM) | 0.5 (≈ 1.04 µM) | 1 (≈ 2.08 µM) | 1 (≈ 2.08 µM) | 0.5 (≈ 1.04 µM) | 0.5 (≈ 1.04 µM) | 1 (≈ 2.08 µM) | > 16 | > 16 | > 16 | 16 (≈ 33.2 µM)
CCCC[C@H](CN(O)C=O)C(=O)N1CCC[C@H]1c1nnc(C2CCCC2)s1 | 0.5 (≈ 1.27 µM) | 0.5 (≈ 1.27 µM) | 2 (≈ 5.07 µM) | 2 (≈ 5.07 µM) | 1 (≈ 2.53 µM) | 2 (≈ 5.07 µM) | 1 (≈ 2.53 µM) | > 16 | > 16 | > 16 | 8 (≈ 20.3 µM)
CCCC[C@H](CN(O)C=O)C(=O)N1CCC[C@H]1c1nnc(-c2ccccc2F)s1 | 0.5 (≈ 1.19 µM) | 0.5 (≈ 1.19 µM) | 1 (≈ 2.38 µM) | 1 (≈ 2.38 µM) | 0.5 (≈ 1.19 µM) | 0.5 (≈ 1.19 µM) | 2 (≈ 4.76 µM) | 16 (≈ 38 µM) | > 16 | 16 (≈ 38 µM) | 8 (≈ 19 µM)
CCCC[C@H](CN(O)C=O)C(=O)N1CCC[C@H]1c1nnc(-c2ccc(F)cc2[N+](=O)[O-])s1 | 1 (≈ 2.15 µM) | 2 (≈ 4.3 µM) | 4 (≈ 8.59 µM) | 2 (≈ 4.3 µM) | 4 (≈ 8.59 µM) | 2 (≈ 4.3 µM) | 4 (≈ 8.59 µM) | > 16 | > 16 | > 16 | > 16
CCCC[C@H](CN(O)C=O)C(=O)N1CCC[C@H]1c1nnc(CCC)s1 | 1 (≈ 2.71 µM) | 1 (≈ 2.71 µM) | 4 (≈ 10.9 µM) | 2 (≈ 5.43 µM) | 2 (≈ 5.43 µM) | 2 (≈ 5.43 µM) | 2 (≈ 5.43 µM) | > 16 | > 16 | > 16 | > 16
CCCC[C@H](CN(O)C=O)C(=O)N1CCC[C@H]1c1nnc(-c2ccccn2)s1 | 0.5 (≈ 1.24 µM) | 0.5 (≈ 1.24 µM) | 1 (≈ 2.48 µM) | 1 (≈ 2.48 µM) | 0.5 (≈ 1.24 µM) | 0.5 (≈ 1.24 µM) | 0.5 (≈ 1.24 µM) | 128 (≈ 317 µM) | 32 (≈ 79.3 µM) | 32 (≈ 79.3 µM) | 16 (≈ 39.7 µM)
